Experimental data from patent publication US20260263376A1, “THERAPEUTIC DELIVERY VECTORS COMPRISING AMPHIPHILIC BLOCK COPOLYMERS” (Swansea University, priority 2023, published 2026).

What was measured:
SKOV-3 WT = experiment: Endocytosis elucidation with chemical inhibitors prior to NP(DiD) treatment, flow cytometry; type: cell-based; settings: inhibitor before NP treatment
Method: (§1) FIG. 19 NP(DiD) uptake following 24 h exposure in OVCAR-3 (a) and SKOV-3 (b). Uptake quantification measured using corrected total cell fluorescence method and plotted for 24 (c), 48 (d) and 72 h (e) NP(DiD) treatments. Endocytosis elucidation conducted using chemical inhibitors, prior to NP(DiD) treatments and cells analyzed using flow cytometry. Example of cell population positive for NP8 in SKOV-3 WT (f) and endocytosis pathway distribution graphs for OVCAR-3 WT (g) and SKOV-3 (h).
Internalization and quantification of nanoparticles was characterized using fluorescently labelled nanoparticles, Vybrant DiD™ loaded particles were fabricated (co-dissolution as previously described) followed by spin filtration to remove non-encapsulated dye. 2D Cell cultures were treated with NP(DiD) for 24, 48 and 72 h. […] Corrected total cell fluorescence (CTCF) was calculated.[36] Microtissue penetration was conducted using the same fluorescently labelled NPs. Spheroids (2×10^3 cells) were seeded 48 h prior to use, 10 spheroids per NP were treated for 24 h with 20 μL stock NP(DiD).[37] […] Data was visualized using MATLAB code form CellStream exports to create violin plots of total populations. […] Nanoparticle, cell counter staining and imaging all conducted as described above. Uptake thresholding into binary high and low uptake conditions was conducted using quantification histograms and manual identification of population peaks.

OVCAR-3 WT = experiment: as above; type: cell-based; settings: inhibitor before NP treatment
Method: as §1
Internalization and quantification of nanoparticles was characterized using fluorescently labelled nanoparticles, Vybrant DiD™ loaded particles were fabricated (co-dissolution as previously described) followed by spin filtration to remove non-encapsulated dye. 2D Cell cultures were treated with NP(DiD) for 24, 48 and 72 h. 426 Cells were co-stained for nuclei using 16.2 μM Hoescht. Cells were imaged using CLSM or quantified following detachment using CellStream (A2 for DAPI channel, 428 B6 for DiD channel). Corrected total cell fluorescence (CTCF) was calculated.[36] Microtissue penetration was conducted using the same fluorescently labelled NPs. […] Uptake thresholding into binary high and low uptake conditions was conducted using quantification histograms and manual identification of population peaks.

NAV 2729
drop in fluorescence (SKOV-3 WT): 90% | drop in fluorescence (OVCAR-3 WT): 90%

CCN(CC)CCCC(C)Nc1ccnc2cc(Cl)ccc12 (stereo not shown) [chloroquine]
increase in cell population positive for NPs (SKOV-3 WT): 3% | increase in mean florescence (SKOV-3 WT): 3×10^5
